# Experimental data published in US12427125B2 (priority 2020, dated 2025).
# Where two headings read alike, the source gives them in different places.
# Experiments:
# female CD-1 mice [1] = settings: for BALF Protein Concentration Mean / BALF Protein Conc. Mean / Total Neutrophil Count per Lavage, Mean: group mean
# Description: The protocols obtained 30 or 18 female CD-1 mice (Charles River Lab) and monitored daily for body condition and health status during the 3-5 days acclimation period.
# At time 0, the mice were weighed. LPS was prepared 1 mg LPS in 1 ml phosphate buffered saline (PBS) to get a final concentration of 1 mg/mL. Dosed 50 μl intratracheally to the mice at time 0. For the N=30 or 18 mice in an incubator, temperature was set to achieve a core temperature of 39° C. as measured by a calibrated thermometer inserted through the top lid of the incubator with the bulb at the level of the mouse cages in the incubator (set temperature knob at 36.7° C.). In addition, a rectal probe to confirmed core temperature in the mice (check right before sacrifice at 24 h post LPS). All mice were given access to food and water at all time. Treatment was initiated three days prior to LPS dosing.
# For anesthesia and LPS Dosing, mice were placed in a bell jar, with isoflurane-soaked gauze separated from the mouse by a screen and keep within a scrubber (so the operator isn't anesthetized). Monitored respiratory rate of each mouse and when reduced by half (usually within 5 seconds of going down), then take the mouse out. Each mouse was suspended from incisors across a string tied between two screws on a Plexiglas board and kept at about 70 degrees. Using blunt forceps, grabbed the tongue and hold extended, then instill 50 μL of the LPS solution into the oropharynx using a PennCentury needle/areosolizer. […] Mouse kept in this position for 5-10 seconds to allow distribution of the LPS, then returned to their cage.
# Bronchoalveolar lavage fluid (BALF) was collected using rounded tip scissors make a vertical incision though skin but not peritoneum from the lower abdomen up to the jaw. Using two forceps grabbed the edge of the skin and pull apart to get wide exposure to underlying peritoneum and thoracic connective tissue/muscle. Using forceps, picked up peritoneum near the mid abdomen and with rounded tip scissors made a small incision in the peritoneum (avoid cutting gut). Then, while holding the upper edge of the peritoneum, used the rounded tip scissors to extend the incision diagonally to the left upper and right upper quadrants. Moved the liver and intestines out of the way so you can see the underside of the diaphragms. Using the rounded tip scissors, nibbled up toward the diaphragm until you can see the lungs on the other side pull away. Repeated on the other side, being careful to not nick the lungs or else you will not be able to recover lavage. Using the rounded tip scissors, cut through the diaphragm where it inserts on the anterior chest wall. Using the rounded tip scissors and taking care to avoid nicking the lung by moving it away with blunt forceps, cut through the chest wall laterally on both sides until you reach the top of the thorax, then cut across the midline at the top to remove the anterior chest wall. Using forceps pull upward on the heart and cut through at its base to remove. Using the rounded tip scissors, remove the fat pads overlying the trachea taking care not to nick the trachea. Using the rounded tip scissors inserted next to the trachea from the top of the thoracic cavity and kept next to and parallel to the trachea, make a single cut, which allowed removal of the rest of the soft tissue from the trachea but pulling over to the other side and carefully trimming to avoid nicking the trachea. Using sharp forceps carefully placed posterior to the trachea pull suture behind the trachea about 4-5 mm below the cricoid and made a very loose surgical knot (two loops around). Using ophthalmic scissors, very carefully made a cut through the anterior half of the trachea just below the cricoid. Inserted a short blunt needle into tracheal so the tip extended about 5-6 mm below the cricoid and tied a suture tightly with a second knot.
# CD-1 mice = settings: for Tolerability: mouse, in vivo
# female CD-1 mice [2] = system: female CD-1 mice
# [3] = system: adult patients infected by SARS-CoV-19 (COVID-19); settings: oral DA 30, 60 or 100 mg/kg BID for up to ten days; paper example
smiles,measurement,setting,value
"CC(=O)[O-].CC[N+](CC)(CC(=O)Nc1c(C)cccc1C)Cc1ccccc1 [DA, Denatonium acetate]",BALF Protein Concentration Mean,"female CD-1 mice [1]; first study, DA 3 mg/kg IV QD",0.638 mg/mL
same,BALF Protein Concentration Mean,"female CD-1 mice [1]; first study, DA 92.4 mg/kg PO BID",0.428 mg/mL
same,"Effect on BALF protein concentration, in words","female CD-1 mice [1]; first study, PO 92.4 mg/kg BID compared with iv 3 mg/kg QD, Table 3, FIG. 1",Only oral administration was effective
same,BALF Protein Conc. Mean,"female CD-1 mice [1]; second study, DA 3 mg/kg IP QD",0.727 mg/mL
same,"Total Neutrophil Count per Lavage, Mean","female CD-1 mice [1]; second study, DA 3 mg/kg IP","610,900"
same,BALF Protein Conc. Mean,"female CD-1 mice [1]; second study, DA 92.4 mg/kg PO BID",0.986 mg/mL
same,"Total Neutrophil Count per Lavage, Mean","female CD-1 mice [1]; second study, DA 92.4 mg/kg PO","535,080"
same,"Effect on BALF total neutrophil count, in words","female CD-1 mice [1]; second study, PO 92.4 mg/kg compared with ip 3 mg/kg, Table 5, FIG. 2",Only oral administration was effective
same,"Changes in BALF protein concentrations, in words","female CD-1 mice [1]; second study, oral and IP dosing, Table 4",nominal (but non-significant) changes
same,Other adverse clinical observations,"CD-1 mice; first study, during 3 days of test article administration",No other adverse clinical observations were noted
same,Tolerability,"CD-1 mice; iv, 3 mg/kg",well-tolerated
same,Tolerability,"CD-1 mice; po, 92.4 mg/kg",well-tolerated
same,Mice found dead on Day 1 (within 24 h after LPS instillation),"female CD-1 mice [2]; mouse, in vivo",one
same,Tolerability,"female CD-1 mice [2]; mouse, in vivo, ip, 3 mg/kg",well-tolerated
same,Tolerability,"female CD-1 mice [2]; mouse, in vivo, po, 92.4 mg/kg",well-tolerated
same,Other adverse clinical observations,"female CD-1 mice [2]; second study, during 3 days of test article administration",No other adverse clinical observations were noted
same,"Decrease in adult respiratory distress syndrome (ARDS), including chronic pulmonary function, diffusion capacity and lung compliance",[3],≥ 20%
same,Decrease in mortality,[3],~40%
same,Patient tolerance,[3],adequate patient tolerance
